The source of these data is PubChem BioAssay AID328 (DTP/NCI, 2004).

“And” between values parts separate entries of the source, which are not always exact repeats. Equal entries are not always repeated. Inconclusive results and toxic doses are left out.

In this experiment the test system is BDF1 mice, P388 leukemia ip, median survival T/C. Briefly: NCI In Vivo Anticancer Drug Screen. Data for tumor model P388 Leukemia (intraperitoneal) in B6D2F1 (BDF1) mice. As to conditions: endpoint: median survival time, higher = longer survival. The essentials:
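Compound-treated tumour-bearing mice were compared with vehicle-treated controls. Survival was recorded, and the value is the treated-group measurement divided by the control-group measurement (T/C).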

The mark [1] stands for this setting: dose: 12.5 mg/kg/injection, schedule: Q01DX009 (ip), vehicle: saline with Tween-80.
The mark [2] stands for this setting: dose: 25.0 mg/kg/injection, schedule: Q01DX009 (ip), vehicle: saline with Tween-80.
Where [3] appears, read: dose: 50.0 mg/kg/injection, schedule: Q01DX009 (ip), vehicle: saline with Tween-80.
Where [4] appears, read: dose: 100.0 mg/kg/injection, schedule: Q01DX009 (ip), vehicle: saline with Tween-80.
Where [5] appears, read: dose: 200.0 mg/kg/injection, schedule: Q01DX009 (ip), vehicle: saline with Tween-80.
The mark [6] stands for this setting: dose: 100.0 mg/kg/injection, schedule: Q04DX003 (ip), vehicle: saline with Tween-80.
The mark [7] stands for this setting: dose: 200.0 mg/kg/injection, schedule: Q04DX003 (ip), vehicle: saline with Tween-80.
Where [8] appears, read: dose: 400.0 mg/kg/injection, schedule: Q04DX003 (ip), vehicle: saline with Tween-80.
Setting [9] is: dose: 25.0 mg/kg/injection, schedule: Q01DX009 (ip), vehicle: Klucel (hydroxypropylcellulose) (HPC).
[10] abbreviates: dose: 100.0 mg/kg/injection, schedule: Q04DX003 (ip), vehicle: Klucel (hydroxypropylcellulose) (HPC).
The mark [11] stands for this setting: dose: 200.0 mg/kg/injection, schedule: Q04DX003 (ip), vehicle: Klucel (hydroxypropylcellulose) (HPC).
Setting [12] is: dose: 400.0 mg/kg/injection, schedule: Q04DX003 (ip), vehicle: Klucel (hydroxypropylcellulose) (HPC).

On to `CCOC(=O)/C=C(\C)C(=O)c1ccc(OC)c(OC)c1OCc1ccccc1`, for which the T/C runs as follows: under setting [1], 100 % of control; under setting [2], 100 % of control; under setting [3], 90 % of control; under setting [4], 90 % of control; under setting [5], 100 % of control.
For the compound `O/N=c1/cc(-c2cccs2)ss1`, the T/C runs as follows: under setting [3], 109 % of control; under setting [4], 104 % of control; (dose: 100.0 mg/kg/injection, schedule: Q04DX003 (ip), vehicle: saline) 117 % of control; under setting [5], 87 % of control; (dose: 200.0 mg/kg/injection, schedule: Q04DX003 (ip), vehicle: saline) 118 % of control; (dose: 400.0 mg/kg/injection, schedule: Q01DX009 (ip), vehicle: saline with Tween-80) 97 % of control. In addition, for the setting “dose: 400.0 mg/kg/injection, schedule: Q04DX003 (ip), vehicle: saline”, the T/C is 124 % of control.
Regarding `Cc1cc(OC(=O)Nc2cccc(Cl)c2C)ccc1Cl`, the T/C is 104 % of control under setting [6], 104 % of control under setting [7] and 109 % of control under setting [8].
In the case of `COC(=O)c1cc([N+](=O)[O-])c(Cl)c([N+](=O)[O-])c1`, the T/C (dose: 6.25 mg/kg/injection, schedule: Q01DX009 (ip), vehicle: Klucel (hydroxypropylcellulose) (HPC)) was 109 % of control; the T/C (dose: 12.5 mg/kg/injection, schedule: Q01DX009 (ip), vehicle: Klucel (hydroxypropylcellulose) (HPC)) was 104 % of control; the T/C under setting [9] was 100 % of control; the T/C (dose: 25.0 mg/kg/injection, schedule: Q04DX003 (ip), vehicle: Klucel (hydroxypropylcellulose) (HPC)) is 100 % of control; the T/C (dose: 50.0 mg/kg/injection, schedule: Q04DX003 (ip), vehicle: Klucel (hydroxypropylcellulose) (HPC)) is 105 % of control.
With `O=C(CO)c1ccccc1`, the T/C (dose: 6.25 mg/kg/injection, schedule: Q01DX009 (ip), vehicle: saline with Tween-80) was 93 % of control; the T/C under setting [1] was 95 % of control; the T/C under setting [2] was 93 % of control; the T/C under setting [3] is 104 % of control.
`ClCCN(CCCl)CCOc1ccc(-c2nc3ccccc3[nH]2)cc1`: the T/C (dose: 12.5 mg/kg/injection, schedule: Q04DX002 (ip), vehicle: saline) is 189 % of control.
Turning to `COc1ccc(Br)c(C=O)c1OS(=O)(=O)c1ccc(C)cc1`, the T/C was 100 % of control (dose: 25.0 mg/kg/injection, schedule: Q01DX009 (ip), vehicle: other); 110 % of control (dose: 50.0 mg/kg/injection, schedule: Q01DX009 (ip), vehicle: other); 94 % of control (dose: 100.0 mg/kg/injection, schedule: Q01DX009 (ip), vehicle: other); 99 % of control (dose: 200.0 mg/kg/injection, schedule: Q01DX009 (ip), vehicle: other); 95 % of control (dose: 400.0 mg/kg/injection, schedule: Q01DX009 (ip), vehicle: other).
Turning to `O=C1c2ccccc2CCCC1N1CCOCC1` (centres undefined), the T/C is, setting by setting: under setting [6], 100 % of control; under setting [7], 90 % of control; under setting [8], 90 % of control.
In the case of `O=[N+]([O-])c1ccc(SCc2ccccc2)c2nonc12`, the T/C is 150 % of control under setting [3] and 153 % of control under setting [4].
Consider `COc1ccc(/C=C2\SC(=S)N(CCCN3CCOCC3)C2=O)c(OC)c1`, for which the T/C under setting [3] is 97 % of control, the T/C under setting [4] was 92 % of control and the T/C under setting [5] was 95 % of control.
Take `COc1cccc2c1C(=O)c1c(O)c3c(c(O)c1C2=O)C[C@@](O)(/C(C)=N/NC(=O)c1ccc(-c2ccccc2)cc1)C[C@@H]3OC1CC(N)C(O)C(C)O1` (some centres undefined): the T/C was 107 % of control (dose: 0.78 mg/kg/injection, schedule: Q01DX009 (ip), vehicle: water); 122 % of control (dose: 1.56 mg/kg/injection, schedule: Q01DX009 (ip), vehicle: water); 224 % of control (dose: 3.12 mg/kg/injection, schedule: Q01DX009 (ip), vehicle: water); 157 % of control (dose: 6.25 mg/kg/injection, schedule: Q01DX009 (ip), vehicle: water); 169 % of control (dose: 12.5 mg/kg/injection, schedule: Q01DX009 (ip), vehicle: water).
For `CC(=O)Oc1ccc(C2(c3ccc(OC(C)=O)cc3)C(=O)Nc3ccccc32)cc1`, the T/C is 95 % of control under setting [10], 104 % of control under setting [11] and 100 % of control under setting [12].
For `CC1(C)C2CCC1(C)C1OC(=O)NN=C21` (centres undefined), the T/C was 100 % of control (dose: 12.5 mg/kg/injection, schedule: Q01DX001 (ip), vehicle: saline with Tween-80); 98 % of control (dose: 25.0 mg/kg/injection, schedule: Q01DX001 (ip), vehicle: saline with Tween-80); 103 % of control (dose: 50.0 mg/kg/injection, schedule: Q01DX001 (ip), vehicle: saline with Tween-80).
Regarding `O=c1cc(N=Nc2ccc(O)cc2)[nH]c(=O)[nH]1`, the T/C by setting is: (dose: 25.0 mg/kg/injection, schedule: Q01DX009 (ip), vehicle: water) 100 % of control; (dose: 50.0 mg/kg/injection, schedule: Q01DX009 (ip), vehicle: water) 106 % of control; (dose: 50.0 mg/kg/injection, schedule: Q04DX003 (ip), vehicle: water) 104 % of control and 107 % of control; (dose: 100.0 mg/kg/injection, schedule: Q01DX009 (ip), vehicle: water) 106 % of control; (dose: 100.0 mg/kg/injection, schedule: Q04DX003 (ip), vehicle: water) 93 % of control and 98 % of control; (dose: 200.0 mg/kg/injection, schedule: Q01DX009 (ip), vehicle: water) 114 % of control. The T/C is 98 % of control and 102 % of control and 117 % of control (dose: 200.0 mg/kg/injection, schedule: Q04DX003 (ip), vehicle: water); 100 % of control (dose: 400.0 mg/kg/injection, schedule: Q01DX009 (ip), vehicle: water); 109 % of control and 111 % of control and 117 % of control (dose: 400.0 mg/kg/injection, schedule: Q04DX003 (ip), vehicle: water).
As for `COc1ccc(C(CC(=O)c2ccc3c(c2)OCO3)c2c(O)c3ccccc3oc2=O)cc1OC` (centres undefined), the T/C is 89 % of control under setting [2] and 91 % of control under setting [3].
Regarding `O[O][Ge]([c]1ccccc1)([c]1ccccc1)[c]1ccccc1`, the T/C reads like this: (dose: 100.0 mg/kg/injection, schedule: Q01DX001 (ip), vehicle: Klucel (hydroxypropylcellulose) (HPC)) 100 % of control; (dose: 200.0 mg/kg/injection, schedule: Q01DX001 (ip), vehicle: Klucel (hydroxypropylcellulose) (HPC)) 100 % of control; (dose: 400.0 mg/kg/injection, schedule: Q01DX001 (ip), vehicle: Klucel (hydroxypropylcellulose) (HPC)) 100 % of control.
Consider `COc1ccc(CCNC(=O)CCN2C(=O)c3ccccc3C2=O)cc1OC`, for which the T/C under setting [6] was 104 % of control, the T/C under setting [7] is 90 % of control and the T/C under setting [8] is 100 % of control.
Take `CCCCCC#CC(=O)O`: the T/C runs as follows: under setting [3], 99 % of control; under setting [4], 100 % of control; under setting [5], 90 % of control.
On to `CC(C)=CCC/C(C)=C/CNc1ncnc2nc[nH]c12`, for which the T/C reads like this: under setting [6], 100 % of control; under setting [7], 90 % of control; under setting [8], 109 % of control and 111 % of control.
As to `Cn1c(C(C)(C)O)cnc1[N+](=O)[O-]`, the T/C reads like this: under setting [1], 105 % of control; under setting [2], 105 % of control; under setting [3], 110 % of control.
Regarding `Nc1c(Br)cc(Br)cc1Br`, the T/C is 110 % of control (dose: 6.0 mg/kg/injection, schedule: Q01DX009 (ip), vehicle: Klucel (hydroxypropylcellulose) (HPC)); 105 % of control (dose: 12.0 mg/kg/injection, schedule: Q01DX009 (ip), vehicle: Klucel (hydroxypropylcellulose) (HPC)); 105 % of control under setting [9]; 105 % of control (dose: 100.0 mg/kg/injection, schedule: Q01DX009 (ip), vehicle: Klucel (hydroxypropylcellulose) (HPC)); 100 % of control under setting [10]; 100 % of control (dose: 200.0 mg/kg/injection, schedule: Q01DX009 (ip), vehicle: Klucel (hydroxypropylcellulose) (HPC)). The T/C was 95 % of control under setting [11]; 111 % of control (dose: 400.0 mg/kg/injection, schedule: Q01DX009 (ip), vehicle: Klucel (hydroxypropylcellulose) (HPC)); 100 % of control under setting [12].
